Consider three compounds from paper PMC9014412 (Journal of medicinal chemistry, 2022).

Structures are written as SMILES.

For one data set, the system named is SIN3A. Description: SIN3A protein levels by western blotting. In kind it is cell-based, human. The conditions noted are these: HCT116 cells. The procedure:
(§1) Supporting Information: Biology
(§2) Representative blots of two independent biological replicates.
Figure S6. Representative Western blot of HDAC1/2/3 levels after 24 hours and 48 hours with 1
(JPS004), 7 (JPS014) and 9 (JPS016), and bar graph representation of HDAC1-3, LSD1 and Sin3a
protein levels after 24 hours and 48 hours as the average of three independent biological replicates.
(also on this page, place not known: HDAC1 24hHDAC2 24hHDAC3 24hHDAC1 48hHDAC2 48hHDAC3 %Protein Levels Remaining (Relative to DMSO) %Protein Levels Remaining (Relative to DMSO))
For orientation: In western blotting, separated proteins are transferred to a membrane and probed.

A further data set deals with H3K56ac. Description: Histone H3 Lys 56 acetylation (H3K56ac) western blotting. The class given is cell-based, human. As to conditions: HCT116 cells, 24 h, screen at 0.1, 1, 10 μM; relative to DMSO, CI-994 and 1 at 10 μM.
Source text: as §1, §2

The nature of the next data set: Solubility observations. The class given is physicochemical. As to conditions: aqueous.
The target in a further data set is HDAC1 (Homo sapiens, UniProt Q13547). Description: HDAC1 degradation by quantitative western blotting in HCT116 cells. The conditions noted are these: HCT116 cells, 24 h, 0.1, 1 and 10 μM; compared with 1 at 10 μM.
A further data set has as its target HDAC2 (Homo sapiens, UniProt Q92769). The data set can be described thus: HDAC2 degradation by quantitative western blotting in HCT116 cells. The conditions noted are these: HCT116 cells, 24 h, 0.1, 1 and 10 μM; compared with 1 at 10 μM.
For data set [1], the system named is HCT116 cells. The data set can be described thus: CellTiter-Glo 2.0 cell viability assay. The class given is cell-based, human. As to conditions: Homo sapiens, HCT-116, 48 h. The procedure:
CellTiter-Glo 2.0 Reagent (Promega UK Ltd, G9242) was equilibrated to room temperature and added to the wells in a ratio of 1 volume reagent:5 volumes medium. Background luminescence was determined using medium alone plus reagent. The plates were shaken on an orbital shaker for 2 min to induce cell lysis and then incubated in the dark at room temperature for 10 min to stabilize the luminescent signal. Luminescence was captured on a CLARIOstar plate reader (BMG Labtech Ltd, UK) at 22 °C to give relative luminescence units and analyzed using BMG Labtech software. EC50 values were calculated by nonlinear regression (Hill plot) and log (inhibitor) versus response—variable slopes (four parameters) using GraphPad Prism 9 software. Each compound dose response was repeated as four independent biological replicates (n = 4).

Data set [2] concerns HCT116 cells. The data set can be described thus: Apoptosis flow cytometry assay (sub-G1 population). The class given is cell-based, human. As to conditions: 10 μM, after 24 h. The procedure:
HCT116 cells were seeded (5 × 10^5 cells/plate) into 6 cm tissue culture plates for 24 h and then treated with 10 μM compounds (with 0.1% DMSO vehicle) or 0.1% DMSO control in fresh medium (5 mL total). The cells were then exposed to the compounds (10 μM) for 24 or 48 h. To harvest the cells, the medium was transferred from each sample plate to 15 mL centrifuge tubes. Each well was washed with 1 mL of phosphate-buffered saline (PBS) and the PBS was transferred to the corresponding 15 mL centrifuge tube. The plates were trypsinized, 2 mL of medium was added, and the cells and medium were transferred to the corresponding 15 mL centrifuge tubes. The harvested cells were pelleted by centrifugation (200g, 5 min, 4 °C), washed with 1 mL PBS, and then pelleted again by centrifugation (200g, 5 min, 4 °C). The supernatant was discarded, and the pellets resuspended in 1 mL of 70% ethanol (ice-cold) to fix the cells. Samples were stored at 4 °C and analyzed within two weeks. PBS (1 mL) was added to each sample tube containing cells fixed in 70% ethanol. The cells were pelleted by centrifugation (200g, 5 min, 4 °C), and the PBS wash was repeated. The supernatant was discarded, and the pellet was resuspended in 50 μL of RNase A (1 μg/mL, Thermo Scientific, EN0531) and left at room temperature for 10 min to digest contaminating RNA. A total of 500 μL of PI stain (50 μg/mL, Invitrogen, P3566) was added to each tube, and the tubes were incubated in the dark, at room temperature, for 30 min. Results were acquired on a BD FACSCanto II flow cytometer and analyzed using BD FACSdiva software. Sub-G1 population was calculated as a percentage of total cell population. Two independent biological replicates were performed.
(In flow cytometry, cells or beads pass a laser one at a time.)

Usually EC50 stands for the concentration at which the effect is half-maximal. A high value points to a less potent agent.

Sequence of HDAC2 (Q92769 whole entry): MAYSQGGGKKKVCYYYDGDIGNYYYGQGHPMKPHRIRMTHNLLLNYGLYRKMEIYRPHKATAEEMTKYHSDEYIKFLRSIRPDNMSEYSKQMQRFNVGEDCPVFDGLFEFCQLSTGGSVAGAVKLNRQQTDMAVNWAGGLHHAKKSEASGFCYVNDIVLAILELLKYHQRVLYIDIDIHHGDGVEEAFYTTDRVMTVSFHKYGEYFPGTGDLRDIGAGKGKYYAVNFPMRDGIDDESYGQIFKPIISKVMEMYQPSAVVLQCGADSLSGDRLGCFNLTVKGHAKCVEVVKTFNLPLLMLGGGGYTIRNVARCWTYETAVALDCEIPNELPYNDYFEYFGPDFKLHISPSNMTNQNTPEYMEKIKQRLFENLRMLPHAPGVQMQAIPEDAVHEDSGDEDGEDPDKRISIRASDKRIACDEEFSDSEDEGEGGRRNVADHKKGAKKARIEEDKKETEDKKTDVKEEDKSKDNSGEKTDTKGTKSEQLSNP
Sequence of HDAC1 (Q13547 whole entry): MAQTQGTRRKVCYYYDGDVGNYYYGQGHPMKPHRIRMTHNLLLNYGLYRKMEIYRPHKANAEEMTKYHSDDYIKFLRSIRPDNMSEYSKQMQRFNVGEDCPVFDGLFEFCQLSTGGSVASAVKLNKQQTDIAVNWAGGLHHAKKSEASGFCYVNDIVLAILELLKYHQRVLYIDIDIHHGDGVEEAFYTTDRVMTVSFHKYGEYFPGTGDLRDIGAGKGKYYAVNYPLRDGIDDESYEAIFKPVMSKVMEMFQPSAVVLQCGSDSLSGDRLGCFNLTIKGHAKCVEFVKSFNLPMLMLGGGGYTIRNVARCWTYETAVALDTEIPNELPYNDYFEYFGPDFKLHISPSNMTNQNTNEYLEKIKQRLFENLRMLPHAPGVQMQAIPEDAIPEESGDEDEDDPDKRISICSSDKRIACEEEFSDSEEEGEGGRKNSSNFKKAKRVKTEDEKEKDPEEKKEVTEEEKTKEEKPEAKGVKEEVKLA
Protocol for HDAC1: (§3) Initially, each PROTAC was tested at 0.1, 1, and 10 μM in HCT116 cells for 24 h; then, cell extracts were prepared and evaluated for HDAC1/2 and 3 degradation by quantitative western blotting.
(§4) This cell line was incubated at 37 °C with 5% CO2.
(§5) HCT116 cells were seeded into 6-well plates (4 × 10^5 cells/well for 24 h, 2 × 10^5 cells/well for 48 h) for 24 h and then treated with DMSO or compounds at the indicated concentrations in fresh medium (5 mL total). After desired treatment time, the cells were harvested and then lysed in lysis buffer (50 mM Tris-HCl, 150 mM NaCl, 0.5% NP-40, 0.5% Triton X-100) supplemented with a protease inhibitor (Sigma, P8340). The suspension was incubated on ice for 30 min and centrifuged (18,000 rcf, 15 min, 4 °C); then, the supernatant was collected, and protein concentrations were quantified via Bradford Assay using Protein Assay Dye Reagent Concentrate (BIO-RAD). […] PageRuler Plus Prestained Ladder was used for size standards. After gel electrophoresis at 140 V for 90 min, the separated proteins were transferred onto a nitrocellulose membrane at 30 V for 60 min. The membranes were probed with primary antibodies (see the Supporting Information) for 60−90 min. Blots were developed with complimentary IRDye-conjugated secondary antibodies, and the bands were visualized using an Odyssey infrared imaging system. Image processing and band intensity quantification were performed using Image Studio Lite.
Protocol for HDAC2: as §3, §4, §5

With `CC(=O)Nc1ccc(C(=O)Nc2ccccc2N)cc1` [CI-994, reference compound], the “SIN3A levels (in words)” value with SIN3A (especially after 48 h) is “significantly reduced”.
As to `Cc1ncsc1-c1ccc(CNC(=O)[C@@H]2C[C@@H](O)CN2C(=O)[C@@H](NC(=O)CCCCCCCCCCCCC(=O)Nc2ccc(C(=O)Nc3ccccc3N)cc2)C(C)(C)C)cc1` [Compound 5, N1-(4-((2-Aminophenyl)carbamoyl)phenyl)-N14-((S)-1-((2S,4R)-4-hydroxy-2-((4-(4-methylthiazol-5-yl)benzyl)carbamoyl)-pyrrolidin-1-yl)-3,3-dimethyl-1-oxobutan-2-yl)tetradecanediamide], the “H3K56ac levels (in words)” value in the data set on H3K56ac was “only a modest increase in H3K56ac compared to the shorter linkers”. In addition, in the data set “Solubility observations”, the “Solubility (in words)” value is “solubility issues”. For the same compound, the “HDAC1 degradation in initial screen (in words)” value on HDAC1 was “comparable HDAC1 and HDAC2 degradation to the shorter linkers”. The “HDAC2 degradation in initial screen (in words)” value on HDAC2 is “comparable HDAC1 and HDAC2 degradation to the shorter linkers”.
In the data set with HCT116 cells [1], `Cc1ncsc1-c1ccc(CNC(=O)[C@@H]2C[C@@H](O)CN2C(=O)[C@@H](NC(=O)CCCCCCCCOCC(=O)Nc2ccc(C(=O)Nc3ccccc3N)cc2)C(C)(C)C)cc1` [Compound 7, (2S,4R)-1-((S)-2-(9-(2-((4-((2-Aminophenyl)carbamoyl)phenyl)-amino)-2-oxoethoxy)nonanamido)-3,3-dimethylbutanoyl)-4-hydroxy-N-(4-(4-methylthiazol-5-yl)benzyl)pyrrolidine-2-carboxamide] yielded an EC50 of 7.3 ± 0.5 µM. Further, the “H3K56ac levels (in words)” value in the data set on H3K56ac was “increased H3K56ac to comparable or greater levels than CI-994 and 1”. In addition, in the data set with SIN3A (10 μM, after 24 h), the “SIN3A levels (abundance)” value was determined as 50 % abundance. The “Percentage of cells in sub-G1 phase (in words)” value with HCT116 cells [2] was “highest percentage of cells in the sub-G1 phase”.
